The subject of data set [1] is canine genes of the array. The data set can be described thus: Canine array fold induction of canine genes in liver of canines dosed with test agents (Table 11). It counts as in vivo. The note with it: dog, gene = c0 of the row; for fold induction at 10 days: 0.3 mg/kg. The text has this: (§1) Table 11 depicts the fold induction for canine genes in a canine array.
Data set [2] deals with Cytochrome P450 2B (gene expression). The data set can be described thus: Canine array fold induction of canine genes in kidney of dogs dosed with an agent (Table 11). The note with it: dog, kidney, 0.3 mg/kg, canine kidney, 10 days. The format is in vivo.
Source text: as §1

Data set [3] concerns canine genes in a canine array (Canine kidney). Described as above. It counts as in vivo. The note with it: for fold induction at 0.3 mg/kg: Canis lupus familiaris, 240 h.
Source text: as §1

The subject of data set [4] is Cytochrome P450 2D (gene expression). The description is as above. The format is in vivo. The note with it: dog, kidney, 0.3 mg/kg, canine kidney, 10 days.
Source text: as §1

Data set [5] deals with Cytochrome P450 2C41 (gene expression). The description is as above. It counts as in vivo. The note with it: dog, kidney, 0.3 mg/kg, canine kidney, 10 days.
Source text: as §1

Data set [6] deals with canine genes of the array. Briefly: Canine array fold induction of canine genes in kidney of canines dosed with test agents (Table 11). The format is in vivo. The note with it: dog, gene = c0 of the row; for fold induction at 10 days: 0.3 mg/kg.
Source text: as §1

In data set [7] the test system is IL-8 gene expression. The data set can be described thus: Measurement of IL-8 dose response: IL-8 gene expression (fold induction) in MDCK cells dosed with cadmium chloride, cDNA probes on canine array. The format is cell-based. The note with it: MDCK cells dosed for 24 hrs at 0.1 μM, 1 μM, and 10 μM; FIG. 3. The text has this: Dosage response is an important concept in toxicology. Depending on the dosage of a toxin or agent which may be toxic, the gene expression profile of a particular gene may vary. One way that this can be envisioned is by observing the changes in fold induction of a particular gene when analyzed using the arrays of this invention. The dosages determined in dose response curves may be useful in determining “threshold” levels of toxicity, for example for FDA approval. Example 15 and FIG. 3 illustrate this embodiment. Methods of analyzing gene expression and how to correlate gene expression data are provided herein.
Fluorescence-labeled first strand cDNA probe was made from total or mRNA by first isolating RNA from control and treated cells, disclosed supra. […]
The volume of each sample that would contain 20 μg of total RNA (or 2 μg of mRNA) was calculated. The amount of DEPC water needed to bring the total volume of each RNA sample to 14 μl was also calculated. […]
Then the appropriate volume of each RNA sample was added to the labeled PCR tube. […] The tubes were kept on ice until all samples are ready for the next step. It is preferable for the tubes to kept on ice until the next step is ready to proceed. The samples were incubated in a PCR machine for 10 minutes at 70° C. followed by 4° C. incubation period until the sample tubes were ready to be retrieved. […]

Where [8] appears, read: canine kidney, 0.3 mg/kg, 10 days.
Setting [9] is: Canine kidney, 0.8 mg/kg, 2 days.

Where two headings read alike, the source gives them in different places.

Consider `C[C@]12CC[C@@H]3c4ccc(O)cc4CC[C@H]3[C@@H]1CC[C@@H]2O` [Estradiol], for which the fold induction at 10 days in data set [1] (0.3 mg/kg, 10196, Canine Liver, 10 days) amounted to 1; in data set [1] (0.3 mg/kg, 10316, Canine liver, 10 day) it was 1.2; in data set [2], 1.2; in data set [4] it was 1.2; in data set [5], 1.7; in data set [6] (0.3 mg/kg, 10087, canine kidney), 1.6. In data set [6] (0.3 mg/kg, 10089, canine kidney), this molecule gave a fold induction at 10 days of 1. Moreover, the fold induction at 0.3 mg/kg in data set [3] (canine kidney, 0.3 mg/kg, 10 days, read-out: Alkaline phosphatase fold induction) was determined as 1.4; in data set [3] (canine kidney, 0.3 mg/kg, 10 days, read-out: Angiopoietin-related protein 3 (ANGPTL3) fold induction), 1.1; in data set [3] (canine kidney, 0.3 mg/kg, 10 days, read-out: BRCA1 fold induction), 1.1; in data set [3] (canine kidney, 0.3 mg/kg, 10 days, read-out: Beta-glucuronidase fold induction) it was 1.3; in data set [3] (canine kidney, 0.3 mg/kg, 10 days, read-out: CD40 ligand fold induction), 1.1; in data set [3] (canine kidney, 0.3 mg/kg, 10 days, read-out: Catalase fold induction) it was 1.2. Also, the fold induction at 0.3 mg/kg came to 1.4 in data set [3] (canine kidney, 0.3 mg/kg, 10 days, read-out: Caveolin-1 fold induction); 1.7 in data set [3] (canine kidney, 0.3 mg/kg, 10 days, read-out: Caveolin-2 fold induction); 1.1 in data set [3] (canine kidney, 0.3 mg/kg, 10 days, read-out: Cubilin fold induction); 1 in data set [3] (canine kidney, 0.3 mg/kg, 10 days, read-out: Cytochrome c oxidase subunit VIIaL fold induction); 1.3 in data set [3] (canine kidney, 0.3 mg/kg, 10 days, read-out: c-erb B-2 fold induction). The “Alkaline phosphatase fold induction” value in data set [3] (setting [8]) was 1.6. The molecule also registered a Caveolin-2 fold induction in data set [3] (setting [8]) of 1.6.
As to `C[C@@H]1[C@H](O)[C@@H](C)/C=C/C=C/C=C/C=C/C=C/C=C/C=C/[C@H](O[C@@H]2O[C@H](C)[C@@H](O)[C@H](N)[C@@H]2O)C[C@@H]2O[C@](O)(C[C@@H](O)C[C@@H](O)[C@H](O)CC[C@@H](O)C[C@@H](O)CC(=O)O[C@H]1C)C[C@H](O)[C@H]2C(=O)O` [Amphoteracin B], in data set [3] (setting [9]), the BRCA1 fold induction came to 1.1, the Beta-glucuronidase fold induction amounted to 1.3, the “CD40 ligand fold induction” value was 1.4 and the Catalase fold induction is reported as 1.1. In data set [3] (setting [9]), the Caveolin-1 fold induction turned out to be 1.0, the Caveolin-2 fold induction came to 1.0, the “Cytochrome P450 2B fold induction” value is on record as 1.1 and the “Cytochrome P450 2C21 fold induction” value came to 1.2. In addition, in data set [3] (setting [9]), the “Cytochrome P450 2D fold induction” value was 1.6, the GRP94 fold induction is recorded as 1.9, the “Glucose transporter fold induction” value is 1.2 and the Glucose-6-phosphatase fold induction stood at 1.3. Further, in data set [3] (setting [9]), the “Glucose-regulated protein 94 #2 fold induction” value turned out to be 1.1, the “Glutathione S-transferase alpha subunit fold induction” value is 1.1, the Interleukin-8 fold induction came out at 1.2 and the Interleukin-10 fold induction was 1.1. Moreover, in data set [3] (setting [9]), the “Keratinocyte growth factor fold induction” value was 1.1, the Mek5 fold induction came out at 1.1, the “Metallothionein 1 fold induction” value is 2.1 and the “Multidrug resistant protein-1 fold induction” value was found to be 1.2. For the same molecule, in data set [3] (setting [9]), the “Phase-1 CCT-11 fold induction” value is reported as 1.3, the “Phase-1 CCT-61 fold induction” value is reported as 1.1, the “Phase-1 CCT-72 fold induction” value stood at 1.1 and the “Phase-1 CCT-74 fold induction” value came to 1.1. Besides, in data set [3] (setting [9]), the “Phase-1 CCT-76 fold induction” value is given as 1.0, the “Phase-1 CCT-78 fold induction” value was determined as 1.0, the “Phase-1 CCT-80 fold induction” value amounted to 1.9 and the “Phase-1 CCT-81 fold induction” value was 1.0. Further, in data set [3] (setting [9]), the “Phase-1 CCT-82 fold induction” value is on record as 1.1, the “Phase-1 CCT-83 fold induction” value is 1.1, the “Phase-1 CCT-87 fold induction” value was determined as 1.1 and the “Phase-1 CCT-89 fold induction” value worked out at 1.1. Moreover, in data set [3] (setting [9]), the “Phase-1 CCT-91 fold induction” value was found to be 1.2, the “Phase-1 CCT-93 fold induction” value was determined as 1.0, the “Phase-1 CCT-97 fold induction” value stood at 1.0 and the “Phenol sulfotransferase fold induction” value was determined as 1.0. For the same molecule, in data set [3] (setting [9]), the “Prostaglandin D synthase fold induction” value worked out at 1.3, the Rab2 fold induction was determined as 1.8, the Rab5 fold induction is 1.1 and the Rab7 fold induction was found to be 2.2. Moreover, in data set [3] (setting [9]), the “SHB (Src homology 2 protein) fold induction” value is listed as 1.1, the “TFCOUP-related (probable steroid hormone receptor) fold induction” value amounted to 1.1, the “Tissue inhibitor of metalloproteinases-1 fold induction” value is 2.5 and the “Tumor necrosis factor-alpha fold induction” value is recorded as 2.0. In addition, in data set [3] (setting [9]), the “UV excision repair protein RAD 23 (XP-C) fold induction” value is recorded as 1.0, the Ubiquitin fold induction is reported as 1.0, the “Vascular cell adhesion molecule 1 (VCAM-1) fold induction” value was found to be 3.5 and the “ZAP36/annexin IV fold induction” value came out at 1.4. For the same molecule, in data set [3] (setting [9]), the “c-erb B-2 fold induction” value stood at 1.3, the “p38 MAPK fold induction” value was 1.2 and the p53 fold induction stood at 1.4.
Turning to `CN(Cc1cnc2nc(N)nc(N)c2n1)c1ccc(C(=O)N[C@@H](CCC(=O)O)C(=O)O)cc1` [Methotrexate], the fold induction at 3 days in data set [1] (2 mg/kg, 10319, Canine liver, 2 mg/kg, 3 day) turned out to be 1.1. The fold induction at 2 days in data set [6] (2 mg/kg, 10189, Canine kidney, 2 mg/kg, 2 days) stood at 1.1.
`[Cl][Cd][Cl]` [cadmium chloride]: in data set [7], the “IL-8 gene expression, fold induction” value is “fold induction varies with the dosage”.

Source of the values: patent US7091033B2, “Array of toxicologically relevant canine genes and uses thereof” (Phase-1 Molecular Toxicology, Inc., priority 2000, dated 2006).
